Marks after values point to notes of the source that are not given here.

Data set [1] in a line: Simulated gastric fluid (SGF) hydrolytic stability assay. Format: physicochemical. As to conditions: simulated gastric fluid without pepsin, pH 1.2, 37° C., 1 h, n = 3; for % NRB released, Hydrolytic Stability (simulated gastric fluid): footnote c: compounds not exhibiting vasoconstriction. The procedure, abridged: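 Compounds at 200 μM final (2.5% DMSO) were held 1 h at 37 °C in pepsin-free USP simulated gastric fluid (0.03 M NaCl, pH 1.2 with HCl), n=3. […] was quantified by RP-LCMS.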

The next data set has as its system rat caudal artery. In words: Rat caudal artery ring contractile force (vasoconstrictory activity). On the set-up: species or system rat (male Wistar). The procedure, abridged: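 Endothelium-denuded caudal artery rings from male Wistar rats were held at 2 g resting tension in Tyrode solution (37° C, pH 7.35, 95% O2/CO2) and isometric force was recorded. Compounds were tested at 50 μM, with contraction expressed as percent of the 90 mM KCl response.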

A short description of data set [2]: Rat serum assay (release of NRB or NRB analogue). The data set is classed as in vitro ADME. The note with it: 80% rat serum, 37° C., 3 h, n = 3. The method in brief:
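Compound (200 μM final) incubated in 80% rat serum diluted with 0.1 M phosphate pH 7.4, 2.5% DMSO, 37 °C for 3 h, n=3, then quenched in ice-cold acetonitrile. NRB or analogue release was quantified by RP-LCMS against external calibration curves, expressed as percent released.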

Data set [3] deals with Sprague Dawley rats. Briefly: In vivo lethality, intravenous injection via the tail. The note with it: rat. More on the design: species or system rat (Sprague Dawley). The method in brief:
(§1)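 Sprague Dawley rats (150-200 g) received compound dissolved in 0.2 M HCl (5% DMSO overall) at the desired dose, by oral gavage or tail-vein i.v. injection. Animals were watched for early toxicity signs every minute (i.v.) or every 15 min (oral).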

Data set [4] has as its system Sprague Dawley rats. Briefly: In vivo lethality, oral gavage. As to conditions: rat; for In vivo lethality (oral): n = 2; for Time to Death (min) / Onset of Symptoms: mean time; for Onset of Symptoms: visual signs of distress consistent with NRB-like symptoms. More on the design: species or system rat (Sprague Dawley). The procedure, abridged: as §1
The nature of data set [5]: Rat liver S9 fraction assay (release of NRB or NRB analogue). The note with it: 1 mg/mL rat liver S9 fraction, 37° C., 6 h, n = 3. Format: in vitro ADME, rat (male Sprague-Dawley). Here is the method:
The hydrolytic stability of compounds of the invention was also evaluated in vitro using rat liver S9 fraction (20 mg/mL), pooled from male rat (Sprague-Dawley), obtained from Sigma-Aldrich, diluted to 1 mg/mL with phosphate buffer (0.1 M, pH 7.4) and stored at −78° C. Similar assay conditions to those reported by Li Di and co-workers (Int. J. Pharm. 2005, 297, 110-119) were followed [200 μL total volume, 1 mg/mL rat liver S9 fraction (diluting with phosphate buffer (0.1 M, pH 7.4)), at a final compound concentration of 200 μM, 2.5% DMSO overall, 37° C., 6 h, n=3]. The assay protocol followed is as that described above for the rat serum assay, with an adjusted end-point of 6 h.

The test system of data set [6] is Sprague Dawley rats. In words: Palatability (no-choice) trial, peanut butter bait. The data set is classed as in vivo, rat (Sprague Dawley). As to conditions: 1% w/w toxicant in peanut butter bait, n = 6, 3 male and 3 female rats, Table 11. The text has this:
In the palatability trials, Sprague Dawley rats (ca. 250 g) were presented with 1% w/w compound (n=6) or 0.5% w/w compound (n=5) in a peanut butter bait, following 3 days ‘pre-baiting’ with a peanut butter formulation free of toxicant.

The mark [7] stands for this setting: Table 5, compounds of formula (III).

With `O=C(OCN1C(=O)C2C3C=C(C(O)(c4ccccc4)c4ccccn4)C(C3=C(c3ccccc3)c3ccccn3)C2C1=O)c1ccc2ccccc2c1` (stereo not drawn) [Compound 20, 5-(α-Hydroxy-α-2-pyridylbenzyl)-2′-naphthoyloxymethyl-7-(α-2-pyridylbenzylidene)-5-norbornene-2,3-dicarboximide], the “% NRB released, Hydrolytic Stability (simulated gastric fluid)” value (from here on “% NRB released … (simulated gastric fluid)”) in data set [1] is 0^c %. Also, the “Vasoconstriction: maximum contractile effect as a % of 90 mM KCl contraction” value is reported as 0% with rat caudal artery (Table 1, compound at 50 μM) and 0% with rat caudal artery (Table 4, pre-cleavage, n = 3). Also, the “% NRB released, Rat Serum” value in data set [2] came to 31.3 ± 2.7%. Also, in the data set on Sprague Dawley rats [3] (20 mg/Kg, n = 2), the “In vivo lethality (i.v.)” value is “yes^f”. Moreover, the “In vivo lethality (oral)” value with Sprague Dawley rats [4] (40 mg/Kg) was “no^h”. Further, the “% NRB released, Rat Liver S9” value in data set [5] came out at 20.2 ± 0.8%.

`O=C(CCC(=O)OCCN1C(=O)C2C3C=C(C(O)(c4ccccc4)c4ccccn4)C(C3=C(c3ccccc3)c3ccccn3)C2C1=O)OCCOC(=O)CCC(=O)OCCN1C(=O)C2C3C=C(C(O)(c4ccccc4)c4ccccn4)C(C3=C(c3ccccc3)c3ccccn3)C2C1=O` (stereo not drawn) [Compound 144, N-[2′-Ethylenebis(hydrogensuccinoyloxy)ethyl]-5-(α-hydroxy-α-2-pyridylbenzyl)-7-(α-2-pyridylbenzylidene)-5-norbornene-2,3-dicarboximide dimer]: the “% NRB released, Hydrolytic Stability” value in data set [1] was 0%. The “Vasoconstriction: maximum contractile effect as a % of 90 mM KCl contraction” value in the data set on rat caudal artery (setting [7]) is on record as 0%; with rat caudal artery (n = 3, pre-cleavage, Table 6), 0%. The “% NRB released, Rat Serum” value in data set [2] was 14.5 ± 0.8%. Also, the “In vivo lethality (i.v.)” value in the data set on Sprague Dawley rats [3] (10 mg/Kg, n = 2, Table 6) is “no^f”. For the same molecule, the “% NRB released, Rat Liver S9” value in data set [5] is listed as below 5%.

Consider “5-(α-Hydroxy-α-2-pyridylbenzyl)-N-2′-phenylpropioyloxyethyl-7-(α-2-pyridylbenzylidene)-5-norbornene-2,3-dicarboximide [Compound 123]”, for which the “% NRB released … (simulated gastric fluid)” value in data set [1] is 0^c %. Further, the “Vasoconstriction: maximum contractile effect as a % of 90 mM KCl contraction” value with rat caudal artery (Table 1, compound at 50 μM) turned out to be 0%. Further, in the data set on rat caudal artery (Table 4, pre-cleavage, n = 3), the “Vasoconstriction: maximum contractile effect as a % of 90 mM KCl contraction” value amounted to 0%. The “% NRB released, Rat Serum” value in data set [2] amounted to 84.5 ± 2.0%. In the data set on Sprague Dawley rats [3] (20 mg/Kg, n = 2), the “In vivo lethality (i.v.)” value is listed as “yes^f”. For the same molecule, in the data set on Sprague Dawley rats [4] (20 mg/Kg), the “Time to Death (min)” value is 35^d min, the “Onset of Symptoms” value is 15 min and the “In vivo lethality (oral)” value was “yes^h,i”. In the data set on Sprague Dawley rats [4] (40 mg/Kg), the “In vivo lethality (oral)” value was “yes^h,i”. Further, the “% NRB released, Rat Liver S9” value in data set [5] is reported as 55.6 ± 4.1%.

For `O=C(OCCN1C(=O)C2C3C=C(C(O)(c4ccccc4)c4ccccn4)C(C3=C(c3ccccc3)c3ccccn3)C2C1=O)C(c1ccccc1)c1ccccc1` (stereo not shown) [Compound 118], the “% NRB released … (simulated gastric fluid)” value in data set [1] is reported as 0^c %. For the same molecule, the “Vasoconstriction: maximum contractile effect as a % of 90 mM KCl contraction” value is 0% in the data set with rat caudal artery (Table 1, compound at 50 μM) and 0% with rat caudal artery (Table 4, pre-cleavage, n = 3). Besides, in data set [2], the “% NRB released, Rat Serum” value is on record as below 5%. Moreover, in the data set with Sprague Dawley rats [3] (20 mg/Kg, n = 2), the “In vivo lethality (i.v.)” value is “yes^f”. In the data set on Sprague Dawley rats [4] (40 mg/Kg), the “In vivo lethality (oral)” value is on record as “no^h”. Moreover, the “% NRB released, Rat Liver S9” value in data set [5] turned out to be 9.0 ± 0.7%.

Take `O=C(CCCCCCCCC(=O)OCCN1C(=O)C2C3C=C(C(O)(c4ccccc4)c4ccccn4)C(C3=C(c3ccccc3)c3ccccn3)C2C1=O)OCCN1C(=O)C2C3C=C(C(O)(c4ccccc4)c4ccccn4)C(C3=C(c3ccccc3)c3ccccn3)C2C1=O` (stereo not drawn) [Compound 141, 5-(α-Hydroxy-α-2-pyridylbenzyl)-7-(α-2-pyridylbenzylidene)-N-2′-sebacoyloxyethyl-5-norbornene-2,3-dicarboximide dimer]: the “% NRB released, Hydrolytic Stability” value in data set [1] was 0%. Further, the “Vasoconstriction: maximum contractile effect as a % of 90 mM KCl contraction” value in the data set on rat caudal artery (setting [7]) amounted to 0%; with rat caudal artery (n = 3, pre-cleavage, Table 6), 0%. Besides, the “% NRB released, Rat Serum” value in data set [2] is recorded as below 5%. In the data set with Sprague Dawley rats [3] (10 mg/Kg, n = 2, Table 6), the “In vivo lethality (i.v.)” value is on record as “no^f”. Besides, the “% NRB released, Rat Liver S9” value in data set [5] was below 5%.

With `O=C(CCCCCCCCC(=O)OCN1C(=O)C2C3C=C(C(O)(c4ccccc4)c4ccccn4)C(C3=C(c3ccccc3)c3ccccn3)C2C1=O)OCN1C(=O)C2C3C=C(C(O)(c4ccccc4)c4ccccn4)C(C3=C(c3ccccc3)c3ccccn3)C2C1=O` (stereo not drawn) [Compound 24, 5-(α-Hydroxy-α-2-pyridylbenzyl)-7-(α-2-pyridylbenzylidene)-N-sebacoyloxymethyl-5-norbornene-2,3-dicarboximide dimer], the “% NRB released, Hydrolytic Stability” value in data set [1] was 0%. The “Vasoconstriction: maximum contractile effect as a % of 90 mM KCl contraction” value in the data set with rat caudal artery (setting [7]) worked out at 0%; with rat caudal artery (n = 3, pre-cleavage, Table 6) it was 0%. Besides, in data set [2], the “% NRB released, Rat Serum” value is recorded as 8.6 ± 0.5%. Besides, the “In vivo lethality (i.v.)” value in the data set on Sprague Dawley rats [3] (20 mg/Kg, n = 2, Table 6) was “no^e”. Further, the “% NRB released, Rat Liver S9” value in data set [5] amounted to 6.2 ± 0.2%.

Regarding `CCCCCCCC(=O)OCCN1C(=O)C2C3C=C(C(O)(c4ccccc4)c4ccccn4)C(C3=C(c3ccccc3)c3ccccn3)C2C1=O` (stereo not drawn) [Compound 111, 5-(α-Hydroxy-α-2-pyridylbenzyl)-N-2′-octanoyloxyethyl-7-(α-2-pyridylbenzylidene)-5-norbornene-2,3-dicarboximide], the “% NRB released … (simulated gastric fluid)” value in data set [1] is recorded as 20^c %. In addition, the “Vasoconstriction: maximum contractile effect as a % of 90 mM KCl contraction” value was 0% in the data set with rat caudal artery (Table 1, compound at 50 μM) and 0% in the data set on rat caudal artery (Table 4, pre-cleavage, n = 3). Besides, in data set [2], the “% NRB released, Rat Serum” value was 87.9 ± 0.7%. For the same molecule, the No of deaths in the data set with Sprague Dawley rats [6] is reported as 6/6. Also, the “Time to Death (min)” value in the data set on Sprague Dawley rats [4] (20 mg/Kg) was >120^e min. In the data set with Sprague Dawley rats [4] (20 mg/Kg), the “Onset of Symptoms” value was 15 min. Moreover, in data set [5], the “% NRB released, Rat Liver S9” value is 48.5 ± 8.5%.

Consider `O=C(OCCN1C(=O)C2C3C=C(C(O)(c4ccccc4)c4ccccn4)C(C3=C(c3ccccc3)c3ccccn3)C2C1=O)c1ccc2ccccc2c1` (stereo not drawn) [Compound 122, 5-(α-Hydroxy-α-2-pyridylbenzyl)-N-[2′-(2″-naphthoyloxy)ethyl]-7-(α-2-pyridylbenzylidene)-5-norbornene-2,3-dicarboximide], for which, in data set [1], the “% NRB released … (simulated gastric fluid)” value is on record as 0^c %. Also, the “Vasoconstriction: maximum contractile effect as a % of 90 mM KCl contraction” value came out at 0% in the data set on rat caudal artery (Table 1, compound at 50 μM) and 0% with rat caudal artery (Table 4, pre-cleavage, n = 3). Besides, the “% NRB released, Rat Serum” value in data set [2] was determined as 14.4 ± 3.0%. For the same molecule, in the data set with Sprague Dawley rats [3] (20 mg/Kg, n = 2), the “In vivo lethality (i.v.)” value is “yes^f”. Besides, the “In vivo lethality (oral)” value in the data set with Sprague Dawley rats [4] (20 mg/Kg) and in the data set on Sprague Dawley rats [4] (40 mg/Kg) was “yes^h,i” each time. For the same molecule, the “% NRB released, Rat Liver S9” value in data set [5] is 14.1 ± 0.5%.

As for `O=C(C=Cc1ccccc1)OCCCN1C(=O)C2C3C=C(C(O)(c4ccccc4)c4ccccn4)C(C3=C(c3ccccc3)c3ccccn3)C2C1=O` (stereo not drawn) [Compound 136, N-3′-Cinnamoyloxypropyl-5-(α-hydroxy-α-2-pyridylbenzyl)-7-(α-2-pyridylbenzylidene)-5-norbornene-2,3-dicarboximide], in data set [1], the “% NRB released … (simulated gastric fluid)” value is recorded as 0^c %. In addition, the “Vasoconstriction: maximum contractile effect as a % of 90 mM KCl contraction” value came out at 0% in the data set on rat caudal artery (Table 1, compound at 50 μM) and 0% in the data set on rat caudal artery (Table 4, pre-cleavage, n = 3). Besides, the “% NRB released, Rat Serum” value in data set [2] is on record as 76.5 ± 5.7%. For the same molecule, the “In vivo lethality (i.v.)” value in the data set on Sprague Dawley rats [3] (20 mg/Kg, n = 2) is on record as “yes^f”. In addition, in the data set with Sprague Dawley rats [4] (20 mg/Kg), the “Time to Death (min)” value was “not lethal”. The “Onset of Symptoms” value in the data set with Sprague Dawley rats [4] (20 mg/Kg) was determined as 20 min. The “In vivo lethality (oral)” value with Sprague Dawley rats [4] (40 mg/Kg) is listed as “yes^h”. For the same molecule, in data set [5], the “% NRB released, Rat Liver S9” value is 18.2 ± 2.7%.

Source of the values: patent US9198420B2, “Rodenticidal norbormide analogues” (priority 2012, dated 2015).
